“Also recorded” adds a separate entry of the source.
Columns and labels:
murine ES cells = details: literature [9]; cited from earlier work
[1] = system: sinoatrial node cells produced in vitro from stem cells; assay: Beat frequency of stem-cell-derived sinoatrial node cells contacted with pharmaceuticals; type: cell-based, murine; details: sinoatrial node cells of the invention contacted with pharmaceuticals
[2] = system: cells derived from iSABs (Myh6-TBX3 cells); assay: Ca2+ imaging (Fluo-4) of spontaneous Ca2+ transients and SR Ca2+ stores in iSAB-derived cells; type: cell-based, murine; details: for frequency of spontaneous Ca2+ transients: 5 μM ZD 7288, 1 μM mibefradil, 1 μM nifedipine, 28° C.; for diastolic Ca2+ level: caffeine 10 mM, thapsigargin 2 μM
cells derived from aCaBs = assay: Ca2+ imaging (Fluo-4) of SR Ca2+ stores in aCaB-derived control cells; type: cell-based, murine
[3] = system: isolated Tbx3-programmed cells (SA/AV pacemaker-type); assay: Single-cell patch-clamp, action potential rate of Tbx3-programmed cells; type: cell-based, murine; details: 37° C.
Description: For the further validation of the functionality and determination of the proportions of the subtypes of the cardiomyocytes, the electrophysiological properties were analyzed by the single-cell patch-clamp technique and the measurement of the density of the HCN (or funny) channels on day 18 of the differentiation as described [14] [16].
Spontaneous action potentials and currents of contracting cardiomyocytes were recorded at 37° C. in the perforated patch configuration using a MultiClamp 700B amplifier and pClamp10 software (Molecular Devices, Union City, USA). The offline data analysis was conducted with Clampfit software (Molecular Devices, Union City, USA) or by means of Origin 6.0 software (Microcal, Northampton, USA). […] The extracellular (bath) solution contained: 140 mM NaCl, 5.4 mM KCl, 1 mM MgCl2, 1.8 mM CaCl2, 5 mM HEPES, 5.5 mM glucose; the pH was adjusted to 7.4 with NaOH. For better recording of the If, in some cases, 2 mM BaCl2 and 0.3 mM CdCl2 were added to the bath solution in order to block IKl and ICa. If was measured by stepwise change proceeding from a hold potential of −40 mV to test potentials between −130 mV and +20 mV. The current amplitude after 3 seconds during the −130 mV pulse was divided by the cell capacitance in order to determine the current (If) density. To determine the If activation kinetics, the time constant of the activation (τ) was obtained by fitting the current trace of the −130 mV step after the initial delay with the sum of two exponential functions y=A1e1 ^−x/τ)+A2e2^(−x/τ), where τ1 and τ2 are fast and slow time constants for the activation; τ1 is accordingly referred to as τ, since the slow component (A2) of the HCN channel activation is generally <10% of the current amplitude. Isoproterenol or carbachol (Sigma, Taufkirchen, Germany) was dissolved directly in the bath solution on the day of the experiment and the cells were administered by means of a rapid exchange superfusion system. APs were recorded with a 10 kHz sampling rate. The analyses were conducted on the original traces. […]

[4] = system: cells originating from iSAB; assay: Single-cell patch-clamp, action potential rate of cells originating from iSAB; type: cell-based, murine; details: for AP rate: patch-clamp, 37° C.
Description: Spontaneous action potentials and currents of contracting cardiomyocytes were recorded at 37° C. in the perforated patch configuration using a MultiClamp 700B amplifier and pClamp10 software (Molecular Devices, Union City, USA). The offline data analysis was conducted with Clampfit software (Molecular Devices, Union City, USA) or by means of Origin 6.0 software (Microcal, Northampton, USA). […] The extracellular (bath) solution contained: 140 mM NaCl, 5.4 mM KCl, 1 mM MgCl2, 1.8 mM CaCl2, 5 mM HEPES, 5.5 mM glucose; the pH was adjusted to 7.4 with NaOH. For better recording of the If, in some cases, 2 mM BaCl2 and 0.3 mM CdCl2 were added to the bath solution in order to block IKl and ICa. If was measured by stepwise change proceeding from a hold potential of −40 mV to test potentials between −130 mV and +20 mV. The current amplitude after 3 seconds during the −130 mV pulse was divided by the cell capacitance in order to determine the current (If) density. To determine the If activation kinetics, the time constant of the activation (τ) was obtained by fitting the current trace of the −130 mV step after the initial delay with the sum of two exponential functions y=A1e1 ^−x/τ)+A2e2^(−x/τ), where τ1 and τ2 are fast and slow time constants for the activation; τ1 is accordingly referred to as τ, since the slow component (A2) of the HCN channel activation is generally <10% of the current amplitude. Isoproterenol or carbachol (Sigma, Taufkirchen, Germany) was dissolved directly in the bath solution on the day of the experiment and the cells were administered by means of a rapid exchange superfusion system. APs were recorded with a 10 kHz sampling rate. The analyses were conducted on the original traces. The inclination/slope of the linear fit of the distance from the MDP to the potential threshold is the DDR; the AP duration is the time from the threshold potential to the MDP.

CCn1c(=O)[nH]c2ccccc21 [EBIO]
formation of node cells from murine ES cells (murine ES cells): enhances the formation of node cells

CCN(c1ccccc1)c1cc(=NC)n(C)c(C)n1.Cl [ZD 7288]
beat frequency [1]: significant reduction in beat frequency | frequency of spontaneous Ca2+ transients [2]: reduced the frequency of the Ca^2+ transients | frequency of spontaneous Ca2+ transients ([2]; listed as ZD7288): decrease significantly

Cn1c(=O)c2c(ncn2C)n(C)c1=O [caffeine]
caffeine-induced Ca2+ peak, sarcolemmal Ca2+ influx blocked ([2]; blockage of Na+/Ca2+ exchanger and Ca2+ channels, iSAB-derived cells compared to aCaB-derived cells): four times greater; also recorded: large caffeine peak | diastolic Ca2+ level ([2]; iSAB-derived cells): increased the diastolic Ca^2+ level | caffeine-induced effect on SR-Ca2+ release (cells derived from aCaBs; caffeine 10 mM, aCaB-derived cells): No similar caffeine-induced effect

C[N+](C)(C)CCOC(N)=O [carbachol]
AP rate [3]: slowed | beat frequency [1]: significant reduction in beat frequency | AP rate [4]: slowed

CC(C)NCC(O)c1ccc(O)c(O)c1 (stereo not drawn) [isoproterenol]
AP rate [3]: acceleration in the AP rate | AP rate ([3]; listed as isoprotenerol): accelerated | beat frequency [1]: increase in beat frequency | AP rate [4]: accelerated | beat frequencies in response to isoprotenerol ([4]; range up to): up to 560 bpm

COCC(=O)O[C@]1(CCN(C)CCCc2nc3ccccc3[nH]2)CCc2cc(F)ccc2[C@@H]1C(C)C [mibefradil]
frequency of spontaneous Ca2+ transients [2]: moderate decrease

C/C=C(/C)C(=O)O[C@H]1C(C)=C2[C@H]([C@@H]1OC(=O)CCCCCCC)[C@@](C)(OC(C)=O)C[C@H](OC(=O)CCC)[C@@]1(O)[C@H]2OC(=O)[C@@]1(C)O [thapsigargin]
rate of intracellular Ca2+ accumulation with SERCA inhibition ([2]; Na+/Ca2+ exchanger blocked plus SERCA inhibition, vs. no SERCA inhibition, iSAB-derived cells): fourfold increase | diastolic Ca2+ level ([2]; iSAB-derived cells): increase in the Ca^2+ diastolic level; also recorded: increased diastolic Ca^2+ levels | reduction of caffeine Ca2+ peak (factor) ([2]; caffeine added 5 min after incubation with thapsigargin, iSAB-derived cells): 4 | caffeine Ca2+ peak with and without SERCA inhibition (cells derived from aCaBs; control cells (aCaB-derived)): remained identical | intracellular Ca2+ accumulation with SERCA inhibition (cells derived from aCaBs; control cells (aCaB-derived)): impossible to detect any intracellular Ca^2+ accumulation

— patent publication US11661582B2, “Method for producing sinoatrial node cells (pacemaker cells) from stem cells, and use of the produced sinoatrial node cells” (UNIVERSITAET ROSTOCK, priority 2013, dated 2023)
